Test results reported in patent publication US10716778B2, “Use of compounds that are able to increase the serum IGF-1 level for the preparation of a therapeutical composition for treatment of various disease states associated with a reduced IGF-1 serum level in humans and animals” (VEIJLEN N.V., priority 2003, dated 2020).
“And” between values parts separate entries of the source, which are not always exact repeats. Equal entries are not always repeated.

Columns and labels:
[1] = tested on: IgF-BP3/IgF-1; experiment: Ratio IgF-BP3/IgF-1 in type 2 diabetic patients during medication with IAA (Example 4); assay type: in vivo, human; conditions: for Ratio IgF-BP3/IgF-1: acetic acid
Excerpt: Five male type 2 diabetic patients took part in the study. They were all very difficult to regulate. When the study started, the average HbA1c was to be approximately 9.0%. The patients had no other clinical problems. In addition, the IgF-BP3/IgF-1 ratio had to be over 10. The age of the subjects were between 45 years and 75 years with an average of 58. The period of the investigation was 6 months. […] The following parameters were checked: IGF-1 and IGF-PB-3. Also, at the start, safety parameters (liver tests, hematology) were determined. Every 8 weeks, HbA1c was determined.
All samples from one subject were analyzed in the same run to avoid intra-assay variability. Quantification of IGF-1 was performed using an immunoradiometric assay (IRMA) (DSL-5600 ACTIVE™, DSL, Germany GmbH, Germany). Intra- and inter-assay variance was: 4.0% and 9.2% and 1.5% for IGF-1. The Hba1c was analyzed on HPLC Menarine HA 81-60.
The total work output of every subject was calculated with a 2-way ANOVA for repeated measures and the hormone values were analyzed with the Wilcoxon test. In all cases, a p value of <0.05 was accepted as significant.

[2] = tested on: type 2 diabetic patients; experiment: Well-being of type 2 diabetic patients after treatment (Example 4); assay type: in vivo, human; conditions: type 2 diabetes patients
Excerpt: Five male type 2 diabetic patients took part in the study. They were all very difficult to regulate. When the study started, the average HbA1c was to be approximately 9.0%. The patients had no other clinical problems. In addition, the IgF-BP3/IgF-1 ratio had to be over 10. The age of the subjects were between 45 years and 75 years with an average of 58. The period of the investigation was 6 months. At the start of the study, after 2 month, 4 months and at the end at 6 months, blood was taken. The following parameters were checked: IGF-1 and IGF-PB-3. Also, at the start, safety parameters (liver tests, hematology) were determined. Every 8 weeks, HbA1c was determined.

[3] = tested on: IGF-1; experiment: IgF-1 level in athletes with intensive training taking IAA or placebo (Example 6); assay type: in vivo, human; conditions: group A
Procedure: Twenty athletes entered the study. Other medication was excluded from the research. The period of the treatment was 12 weeks. They were not allowed to take any other medication or food supplements. They continued their level of training. After 2 weeks, the training was intensified by 25%. At baseline, at the start, after 2 weeks, 4 weeks, 6 weeks, 8 weeks, 10 weeks and 12 weeks, IGF-1 and safety parameters (liver tests, hematology) were determined. The group was divided into two groups of ten athletes. Group A received IAA; group B got a placebo.
All samples from one subject were analyzed in the same run to avoid intra-assay variability. GH was assayed with a chemiluminescence kit (Nichols Institute Diagnostics, San Juan Capistrano, Calif., USA). Quantification of IGF-1 was performed using an immunoradiometric assay (IRMA) (DSL-5600 ACTIVE, DSL, Germany GmbH, Germany). Intra- and inter-assay variance was: 4.0% and 9.2% for GH; 3.0% and 1.5% for IGF-1.
The total work output of every subject was calculated with a two-way ANOVA for repeated measures and the hormone values were analyzed with the Wilcoxon test. In all cases, 1 p value of <0.05 was accepted as significant.
The following schedule was used for the supplements. 1 IAA capsule contained 10 mg IAA, 100 mg NaCl, 140 mg WPC 70. One Glutamine capsule contained 500 mg glutamine. The amino acids that were taken are as described in Table 1.

[4] = tested on: IGF-1; experiment: IGF-1 levels in poor-growing piglets treated with IAA (Example 7); assay type: in vivo, piglets (Dutch Landrace)
Excerpt: The trial was done in a well-managed farm with 1000 sows of the Dutch Landrace. Although the farm is well run, the technical performance is not optimal. There were latent problems with mortality and with growth rates of the piglets. There are too many poor-growing piglets, without fully understanding the technical or veterinary reason. There is no clear pathology to be seen on the farm.
The farmer selected the poor-growing piglets for this weaning period. The piglets were weaned for two days at the start of the trial. There were three groups: the normal well-growing piglets, which served as a control group; the B group with 78 poor growers that are treated with 12.5 mg/kg/LW (Life Weight) IAA; and the X group with 52 poor growers that are not treated.
Blood samples for IGF-1 measuring were taken from each group at the beginning of the trial and at the end of the trial. Two pens (13 piglets) of the B and X groups were weighed at the beginning and at the end of the trial. The active ingredient IAA was mixed in dextrose. […] The B group received the treatment five days after the first IGF-1 measuring.

[5] = tested on: piglets that had a history of PRRSV; experiment: Health condition of problem piglets (group P) with history of PRRSV treated with IAA (Example 9); assay type: in vivo, Belgian Land Race piglets; conditions: after ten days of treatment
Procedure: The piglets were weaned at four weeks and relocated, twelve piglets per pen. IGF-1 levels from three different groups were tested at the age of five weeks.
These are the pigs with the big problems. They are looking poor, have a low weight, bad color and some of them have Staphylococcus infections. It was the firm belief of the farmer and the veterinarian that these piglets would not reach the end of the fattening cycle. Blood samples were taken at random from five of the twelve piglets.
After seeing the low IGF-1 levels in group P, it was decided to give them the same treatment as in humans with CFS. The average weight of the piglets would have been around seven kilos at five weeks of age. They were treated with 125 mg of the composition comprising 5 mg IAA and 120 mg NaCl and WPC 70 for ten days. The product was fed in a trough, mixed in liquid feed. All the piglets ate from the same trough.

indole acetic acid [IAA]
Ratio IgF-BP3/IgF-1, average ([1]; Month 0 (start), average of 5 subjects): 10.6
Ratio IgF-BP3/IgF-1 ([1]; Month 0 (start), individual subjects): 10.2 and 10.6 and 10.8 and 11.3 and 10.0
Ratio IgF-BP3/IgF-1, average ([1]; Month 1, average of 5 subjects): 9.9
Ratio IgF-BP3/IgF-1 ([1]; Month 1, individual subjects): 9.7 and 10.1 and 9.9 and 10.8 and 8.9
Ratio IgF-BP3/IgF-1, average ([1]; Month 2, average of 5 subjects): 8.9
Ratio IgF-BP3/IgF-1 ([1]; Month 2, individual subjects): 9.0 and 8.6 and 9.4 and 9.2 and 8.5
Ratio IgF-BP3/IgF-1, average ([1]; Month 3, average of 5 subjects): 8.5
Ratio IgF-BP3/IgF-1 ([1]; Month 3, individual subjects): 8.6 and 8.3 and 8.9 and 8.8 and 8.1
Ratio IgF-BP3/IgF-1, average ([1]; Month 4, average of 5 subjects): 7.9
Ratio IgF-BP3/IgF-1 ([1]; Month 4, individual subjects): 8.0 and 7.6 (2×) and 8.3 and 7.8
Ratio IgF-BP3/IgF-1, average ([1]; Month 5, average of 5 subjects): 7.2
Ratio IgF-BP3/IgF-1 ([1]; Month 5, individual subjects): 7.2 (2×) and 6.8 and 7.6 and 7.3
Ratio IgF-BP3/IgF-1, average ([1]; Month 6, average of 5 subjects): 6.8
Ratio IgF-BP3/IgF-1 ([1]; Month 6, individual subjects): 6.6 and 6.3 and 7.2 and 6.9 (2×)
how the patients felt after the treatment [2]: felt better
increase of IgF-1 level ([3]; over a period of 8 weeks (so in the source), statistically significant): ca. 47.7%
IgF-1 level, average test group ([3]; time point 0 (start), blood taken every 2 weeks over 12 weeks): 27.9 nmol/L
IgF-1 level, average test group ([3]; time point 1): 35.8 nmol/L
IgF-1 level, average test group ([3]; time point 2): 38.9 nmol/L
IgF-1 level, average test group ([3]; time point 3): 42.5 nmol/L
IgF-1 level, average test group ([3]; time point 4): 41.7 nmol/L
IgF-1 level, average test group ([3]; time point 5): 41.4 nmol/L
IgF-1 level, average test group ([3]; time point 6 (end of the study)): 41.2 nmol/L
IGF-1 level, 2nd measurement ([4]; treated group B, individual piglets, after 21 days of 12.5 mg/kg/LW IAA in feed, acetic acid, 12.5 mg/kg): 25.2 nmol/L and 28.9 nmol/L and 25.5 nmol/L and 29.9 nmol/L and 16.9 nmol/L
IGF-1 level, 1st measurement ([4]; treated group B, individual piglets, beginning of the trial, before treatment, acetic acid): 3 nmol/L and 2.7 nmol/L and 6.1 nmol/L and 5.3 nmol/L and 5.7 nmol/L
IGF-1 level, 2nd measurement, average ([4]; treated group B, average of 5 piglets, after 21 days of treatment, control 23.6, non-treated X 17.2, acetic acid): 25.3 nmol/L and 25.28 nmol/L
IGF-1 level, 1st measurement, average ([4]; treated group B, average of 5 piglets, before treatment): 4.56 nmol/L
effect on IGF-1 levels in poor-growing piglets ([4]; treatment for 14-21 days with 12.5 mg/kg/LW IAA): effectively restores IGF-1 levels
Staphylococcus infection [5]: no piglets suffered from Staphylococcus infection anymore
condition of the piglets [5]: dramatically improved
survival [5]: All twelve pigs were still alive
